# Measurements taken from patent US9708314B2, “Heterocyclic amide compound” (NISSAN CHEMICAL INDUSTRIES, LTD., priority 2013, dated 2017).
# Key:
# Format in all cases: in vivo
# [1] = test system: transplanted Oryza sativa; assay: Test Example 1: effect on crop, application before weed generation in submerged conditions; conditions: Application herbicide amount 320 g/ha; Seventeenth Table
# In short: (§1)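 Rating, on a six-step scale from almost no effect (0) to almost completely withered (5), was made three weeks after pre-emergence treatment. Treatment was surface application to flooded pots at g/ha rates, with plants kept at 25° C. to 30° C.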
# Monochoria vaginalis = assay: Test Example 1: herbicidal activity, application before weed generation in submerged conditions; conditions: Application herbicide amount 320 g/ha; Seventeenth Table
# In short: as §1
# [2] = test system: Echinochloa oryzacola Vasing.; assay: as above; conditions: Application herbicide amount 320 g/ha; Seventeenth Table
# In short: as §1
# Scirpus juncoides = assay: as above; conditions: Application herbicide amount 320 g/ha; Seventeenth Table
# In short: as §1
# Zea mays = assay: Test Example 4: effect on crop by application to foliage (diluvial soil, plastic box); conditions: application to foliage, application herbicide amount 320 g/ha
# In short: (§2)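 Emulsion-formulated compound, diluted to a predetermined g/ha dose, applied by small sprayer to leaves and stems of 14-day-old seedlings grown in sterilized diluvial soil. Effect rated on 0–5 herbicidal-ratio scale three weeks on.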
# [3] = test system: Beta vulgaris ssp. vulgaris; assay: as above; conditions: application to foliage, application herbicide amount 320 g/ha
# In short: as §2
# Glycine max = assay: as above; conditions: application to foliage, application herbicide amount 320 g/ha
# In short: as §2
# Triticum aestivum = assay: as above; conditions: application to foliage, application herbicide amount 320 g/ha
# In short: as §2
# Brassica campestris L. = assay: as above; conditions: application to foliage, application herbicide amount 320 g/ha
# In short: as §2
# [4] = test system: directly sowed Oryza sativa; assay: as above; conditions: application to foliage, application herbicide amount 320 g/ha
# In short: as §2
# Apera spica-venti. = assay: Test Example 4: herbicidal effect by application to foliage (diluvial soil, plastic box); conditions: application to foliage, application herbicide amount 320 g/ha
# In short: as §2
# Avena fatua = assay: as above; conditions: application to foliage, application herbicide amount 320 g/ha
# In short: as §2
# Abutilon theophrasti = assay: as above; conditions: application to foliage, application herbicide amount 320 g/ha
# In short: as §2
# Galium spurium = assay: as above; conditions: application to foliage, application herbicide amount 320 g/ha
# In short: as §2
# Stellaria media = assay: as above; conditions: application to foliage, application herbicide amount 320 g/ha
# In short: as §2
# Alopecurus myosuroides = assay: as above; conditions: application to foliage, application herbicide amount 320 g/ha
# In short: as §2
# Veronica persica = assay: as above; conditions: application to foliage, application herbicide amount 320 g/ha
# In short: as §2
# Chenopodium album = assay: as above; conditions: application to foliage, application herbicide amount 320 g/ha
# In short: as §2
# Lolium multiflorum Lam. = assay: as above; conditions: application to foliage, application herbicide amount 320 g/ha
# In short: as §2
# Amaranthus retroflexus = assay: as above; conditions: application to foliage, application herbicide amount 320 g/ha
# In short: as §2
# Digitaria ciliaris = assay: as above; conditions: application to foliage, application herbicide amount 320 g/ha
# In short: as §2
# [5] = test system: Echinochloa crus-galli var. crus-galli; assay: as above; conditions: application to foliage, application herbicide amount 320 g/ha
# In short: as §2
# Setaria viridis = assay: as above; conditions: application to foliage, application herbicide amount 320 g/ha
# In short: as §2
Structure (SMILES),a: transplanted Oryza sativa (effect on crop grade) [1],C: Monochoria vaginalis (herbicidal effect grade) (Monochoria vaginalis),A: Echinochloa oryzicola Vasing. (herbicidal effect grade) [2],B: Scirpus juncoides (herbicidal effect grade) (Scirpus juncoides),"c: effect on crop, Zea mays (Zea mays)","f: effect on crop, Beta vulgaris ssp. vulgaris [3]","d: effect on crop, Glycine max (Glycine max)","e: effect on crop, Triticum aestivum (Triticum aestivum)","g: effect on crop, Brassica campestris L. (Brassica campestris L.)","b: effect on crop, directly sowed Oryza sativa [4]",L: herbicidal effect on Apera spica-venti. (Apera spica-venti.),I: herbicidal effect on Avena fatua (Avena fatua),M: herbicidal effect on Abutilon theophrasti (Abutilon theophrasti),Q: herbicidal effect on Galium spurium (Galium spurium),P: herbicidal effect on Stellaria media (Stellaria media),J: herbicidal effect on Alopecurus myosuroides (Alopecurus myosuroides),R: herbicidal effect on Veronica persica (Veronica persica),O: herbicidal effect on Chenopodium album (Chenopodium album),K: herbicidal effect on Lolium multiflorum Lam. (Lolium multiflorum Lam.),N: herbicidal effect on Amaranthus retroflexus (Amaranthus retroflexus),other results
CCC(CC)c1nnc2c(C(=O)Nc3nnnn3C)ccc(C(F)(F)F)n12 [2-006],4 (Herbicidal ratio of 70% or more and less than 90%),5 (Herbicidal ratio of 90% or more (almost completely withered)),5 (Herbicidal ratio of 90% or more (almost completely withered)),5 (Herbicidal ratio of 90% or more (almost completely withered)),1 (Herbicidal ratio of 5% or more and less than 20%),5 (Herbicidal ratio of 90% or more (almost completely withered)),4 (Herbicidal ratio of 70% or more and less than 90%),3 (Herbicidal ratio of 40% or more and less than 70%),4 (Herbicidal ratio of 70% or more and less than 90%),5 (Herbicidal ratio of 90% or more (almost completely withered)),4 (Herbicidal ratio of 70% or more and less than 90%),3 (Herbicidal ratio of 40% or more and less than 70%),5 (Herbicidal ratio of 90% or more (almost completely withered)),3 (Herbicidal ratio of 40% or more and less than 70%),5 (Herbicidal ratio of 90% or more (almost completely withered)),2 (Herbicidal ratio of 20% or more and less than 40%),5 (Herbicidal ratio of 90% or more (almost completely withered)),5 (Herbicidal ratio of 90% or more (almost completely withered)),1 (Herbicidal ratio of 5% or more and less than 20%),5 (Herbicidal ratio of 90% or more (almost completely withered)),F: herbicidal effect on Digitaria ciliaris (Digitaria ciliaris): 5 (Herbicidal ratio of 90% or more (almost completely withered)); H: herbicidal effect on Echinochloa crus-galli var. crus-galli [5]: 5 (Herbicidal ratio of 90% or more (almost completely withered)); G: herbicidal effect on Setaria viridis (Setaria viridis): 5 (Herbicidal ratio of 90% or more (almost completely withered))
Cn1nnnc1NC(=O)c1ccc(C(F)(F)F)n2c(-c3ccccc3)nnc12 [2-007],3 (Herbicidal ratio of 40% or more and less than 70%),5 (Herbicidal ratio of 90% or more (almost completely withered)),5 (Herbicidal ratio of 90% or more (almost completely withered)),5 (Herbicidal ratio of 90% or more (almost completely withered)),0 (Herbicidal ratio of 5% or less (almost no effect)),5 (Herbicidal ratio of 90% or more (almost completely withered)),3 (Herbicidal ratio of 40% or more and less than 70%),2 (Herbicidal ratio of 20% or more and less than 40%),4 (Herbicidal ratio of 70% or more and less than 90%),2 (Herbicidal ratio of 20% or more and less than 40%),4 (Herbicidal ratio of 70% or more and less than 90%),3 (Herbicidal ratio of 40% or more and less than 70%),5 (Herbicidal ratio of 90% or more (almost completely withered)),1 (Herbicidal ratio of 5% or more and less than 20%),5 (Herbicidal ratio of 90% or more (almost completely withered)),2 (Herbicidal ratio of 20% or more and less than 40%),5 (Herbicidal ratio of 90% or more (almost completely withered)),5 (Herbicidal ratio of 90% or more (almost completely withered)),2 (Herbicidal ratio of 20% or more and less than 40%),5 (Herbicidal ratio of 90% or more (almost completely withered)),F: herbicidal effect on Digitaria ciliaris (Digitaria ciliaris): 5 (Herbicidal ratio of 90% or more (almost completely withered)); H: herbicidal effect on Echinochloa crus-galli var. crus-galli [5]: 5 (Herbicidal ratio of 90% or more (almost completely withered)); G: herbicidal effect on Setaria viridis (Setaria viridis): 4 (Herbicidal ratio of 70% or more and less than 90%)
Cn1nnnc1NC(=O)c1ccc(C(F)(F)F)n2c(Cl)nnc12 [2-008],1 (Herbicidal ratio of 5% or more and less than 20%),4 (Herbicidal ratio of 70% or more and less than 90%),4 (Herbicidal ratio of 70% or more and less than 90%),4 (Herbicidal ratio of 70% or more and less than 90%),0 (Herbicidal ratio of 5% or less (almost no effect)),5 (Herbicidal ratio of 90% or more (almost completely withered)),3 (Herbicidal ratio of 40% or more and less than 70%),2 (Herbicidal ratio of 20% or more and less than 40%),3 (Herbicidal ratio of 40% or more and less than 70%),1 (Herbicidal ratio of 5% or more and less than 20%),1 (Herbicidal ratio of 5% or more and less than 20%),3 (Herbicidal ratio of 40% or more and less than 70%),5 (Herbicidal ratio of 90% or more (almost completely withered)),3 (Herbicidal ratio of 40% or more and less than 70%),5 (Herbicidal ratio of 90% or more (almost completely withered)),1 (Herbicidal ratio of 5% or more and less than 20%),4 (Herbicidal ratio of 70% or more and less than 90%),5 (Herbicidal ratio of 90% or more (almost completely withered)),2 (Herbicidal ratio of 20% or more and less than 40%),5 (Herbicidal ratio of 90% or more (almost completely withered)),F: herbicidal effect on Digitaria ciliaris (Digitaria ciliaris): 3 (Herbicidal ratio of 40% or more and less than 70%); H: herbicidal effect on Echinochloa crus-galli var. crus-galli [5]: 4 (Herbicidal ratio of 70% or more and less than 90%); G: herbicidal effect on Setaria viridis (Setaria viridis): 2 (Herbicidal ratio of 20% or more and less than 40%)
Cn1nnnc1NC(=O)c1ccc(C(F)(F)F)n2c(Br)nnc12 [2-009],0 (Herbicidal ratio of 5% or less (almost no effect)),4 (Herbicidal ratio of 70% or more and less than 90%),3 (Herbicidal ratio of 40% or more and less than 70%),3 (Herbicidal ratio of 40% or more and less than 70%),1 (Herbicidal ratio of 5% or more and less than 20%),5 (Herbicidal ratio of 90% or more (almost completely withered)),4 (Herbicidal ratio of 70% or more and less than 90%),1 (Herbicidal ratio of 5% or more and less than 20%),4 (Herbicidal ratio of 70% or more and less than 90%),2 (Herbicidal ratio of 20% or more and less than 40%),1 (Herbicidal ratio of 5% or more and less than 20%),3 (Herbicidal ratio of 40% or more and less than 70%),5 (Herbicidal ratio of 90% or more (almost completely withered)),4 (Herbicidal ratio of 70% or more and less than 90%),5 (Herbicidal ratio of 90% or more (almost completely withered)),1 (Herbicidal ratio of 5% or more and less than 20%),4 (Herbicidal ratio of 70% or more and less than 90%),5 (Herbicidal ratio of 90% or more (almost completely withered)),2 (Herbicidal ratio of 20% or more and less than 40%),5 (Herbicidal ratio of 90% or more (almost completely withered)),F: herbicidal effect on Digitaria ciliaris (Digitaria ciliaris): 4 (Herbicidal ratio of 70% or more and less than 90%); H: herbicidal effect on Echinochloa crus-galli var. crus-galli [5]: 5 (Herbicidal ratio of 90% or more (almost completely withered)); G: herbicidal effect on Setaria viridis (Setaria viridis): 3 (Herbicidal ratio of 40% or more and less than 70%)
